For the assay, the target named is T1, androgen receptor (AR) splicing variant AR-v7 (Homo sapiens, UniProt P10275).
T1 construct: The degradation activity of compounds on AR-v7 in 22RV1 cells; host or cells: 22RV1 cells
T1 sequence (P10275 1-644 isoform P10275-3): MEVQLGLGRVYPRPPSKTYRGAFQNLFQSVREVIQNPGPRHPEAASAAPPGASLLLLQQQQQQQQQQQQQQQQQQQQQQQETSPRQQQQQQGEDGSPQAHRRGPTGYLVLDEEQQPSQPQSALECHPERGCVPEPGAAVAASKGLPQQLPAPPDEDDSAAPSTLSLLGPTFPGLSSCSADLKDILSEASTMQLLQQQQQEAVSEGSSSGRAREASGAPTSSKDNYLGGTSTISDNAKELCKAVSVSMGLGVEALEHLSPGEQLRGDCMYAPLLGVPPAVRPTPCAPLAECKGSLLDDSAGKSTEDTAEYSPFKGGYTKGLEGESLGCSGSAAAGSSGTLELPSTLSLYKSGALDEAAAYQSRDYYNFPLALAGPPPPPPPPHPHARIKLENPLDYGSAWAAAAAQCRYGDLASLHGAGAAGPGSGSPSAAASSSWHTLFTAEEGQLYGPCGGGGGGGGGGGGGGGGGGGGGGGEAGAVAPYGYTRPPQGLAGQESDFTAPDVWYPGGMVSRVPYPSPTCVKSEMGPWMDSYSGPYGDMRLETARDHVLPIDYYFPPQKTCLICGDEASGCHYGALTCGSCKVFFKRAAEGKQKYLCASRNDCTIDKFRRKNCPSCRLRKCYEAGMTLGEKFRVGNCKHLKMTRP
Description: Degradation activity on androgen receptor splicing variant AR-v7 in 22RV1 cells (ELISA). The format is cell-based. The following applies: AR-v7 degradation in 22RV1 cells, 48 h.

This is an account of results in patent publication US20250051347A1, “BIFUNCTIONAL CHIMERIC HETEROCYCLIC COMPOUND AND USE THEREOF AS ANDROGEN RECEPTOR DEGRADER” (Hinova Pharmaceuticals, Inc., priority 2021, published 2025).

In the case of `C[C@@H]1CN[C@@H](C)CN1c1nccc(COc2ccc(C(C)(C)c3ccc(O[C@H]4C[C@@H](Nc5ccc6c(c5)C(=O)N(C5CCC(=O)NC5=O)C6=O)C4)cc3)cc2)n1` (stereo partly shown) [Example 411], the DC50 (in general, the concentration giving 50% degradation) (class symbols) lay within 11 to 100 nM.
Where the note is “class symbols”, `C[C@@H]1CN(C)[C@@H](C)CN1c1nccc(COc2ccc(C(C)(C)c3ccc(O[C@H]4C[C@@H](Nc5ccc6c(c5)C(=O)N(C5CCC(=O)NC5=O)C6=O)C4)cc3)cc2)n1` (stereo partly shown) [Example 412] had a DC50 of 11 to 100 nM.
`Cn1nccc1-c1nccc(COc2ccc(C(C)(C)c3ccc(O[C@H]4C[C@@H](Nc5ccc6c(c5)C(=O)N(C5CCC(=O)NC5=O)C6=O)C4)cc3)cc2)n1` (stereo partly shown) [Example 417] gave a DC50 (class symbols) of 11 to 100 nM.
Still for that read-out and setting: the value for `Cn1cc(-c2cccc(COc3ccc(C(C)(C)c4ccc(O[C@H]5C[C@@H](Nc6ccc7c(c6)C(=O)N(C6CCC(=O)NC6=O)C7=O)C5)cc4)cc3)n2)cn1` (stereo partly shown) [Example 418] was 11 to 100 nM; that for `Cc1nc(-c2cccc(Oc3ccc(C(C)(C)c4ccc(O[C@H]5C[C@@H](Nc6ccc7c(c6)C(=O)N(C6CCC(=O)NC6=O)C7=O)C5)cc4)cc3)n2)no1` (stereo partly shown) [Example 422] was 11 to 100 nM; that for `CC(C)(c1ccc(Oc2ccc(N3CC(N4CC(F)(F)C4)C3)nn2)cc1)c1ccc(O[C@H]2C[C@H](Nc3ccc4c(c3)C(=O)N(C3CCC(=O)NC3=O)C4=O)C2)cc1` (stereo partly shown) [Example 424] was 11 to 100 nM.
On the same count and under the same terms, under `C[C@@H]1CN(c2nccc(COc3ccc(C(C)(C)c4ccc(O[C@H]5C[C@@H](Nc6ccc7c(c6)C(=O)N(C6CCC(=O)NC6=O)C7=O)C5)cc4)cc3)n2)C[C@H](C)N1` (stereo partly shown) [Example 433, 5-(((1s,3s)-3-(4-(2-(4-((2-((3s,5r)-3,5-dimethylpiperazin-1-yl)pyrimidin-4-yl)methoxy)phenyl)propan-2-yl)phenoxy)cyclobutyl)amino)-2-(2,6-dioxopiperidin-3-yl)isoindolin-1,3-dione] stands 11 to 100 nM; under `CC(C)(c1ccc(OCCCNc2cccc3c2C(=O)N(C2CCC(=O)NC2=O)C3=O)cc1)c1ccc(OCc2cnc(N3CCOCC3)s2)cc1` (stereo not shown) [Example 435, 2-(2,6-dioxopiperidin-3-yl)-4-((3-(4-(2-(4-((2-morpholinethiazol-5-yl)methoxy)phenyl)propan-2-yl)phenoxy)propyl)amino)isoindolin-1,3-dione], 1000 to 5000 nM.
Consider `CC(C)(c1ccc(OCCCCCCCCOCCCCNc2ccc3c(c2)C(=O)N(C2CCC(=O)NC2=O)C3=O)cc1)c1ccc(OCc2ccnc(-n3cccn3)n2)cc1` (stereo not shown) [Example 437, 5-((4-((8-(4-(2-(4-((2-(1H-pyrazol-1-yl)pyrimidin-4-yl)methoxy)phenyl)propan-2-yl)phenoxy)octyl)oxy)butyl)amino)-2-(2,6-dioxopiperidin-3-yl)isoindolin-1,3-dione], for which, where the note is “numeric values”, the DC50 was over 10000 nM.
On to `CCC(CC)(c1ccc(OCCCNc2ccc3c(c2)C(=O)N(C2CCC(=O)NC2=O)C3=O)cc1)c1ccc(OCc2ccnc(C(C)=O)n2)cc1` (stereo not shown) [Example 439, 5-((3-(4-(3-(4-((2-acetylpyrimidin-4-yl)methoxy)phenyl)pentan-3-yl)phenoxy)propyl)amino)-2-(2,6-dioxopiperidine-3-amino)isoindolin-1,3-dione], for which the DC50 (class symbols) was 11 to 100 nM.
Same read-out and setting: under `CC(C)(c1ccc(OCCCNc2ccc3c(c2)C(=O)N(C2CCC(=O)NC2=O)C3=O)cc1)c1ccc(OCc2ccnc(N3CCCC3)n2)cc1` (stereo not shown) [Example 440, 2-(2,6-dioxopiperidin-3-yl)-5-((3-(4-(2-(4-((2-(pyrrolidin-1-yl)pyrimidin-4-yl)methoxy)phenyl)propan-2-yl)phenoxy)propyl)amino)isoindolin-1,3-dione] stands 11 to 100 nM; under `CC(C)(c1ccc(OCCCNc2ccc3c(c2)C(=O)N(C2CCC(=O)NC2=O)C3=O)cc1)c1ccc(OCc2nc(C(N)=O)cs2)cc1` (stereo not shown) [Example 441, 2-((4-(2-(4-(3-((2-(2,6-dioxopiperidin-3-yl)-1,3-dioxoisoindolin-5-yl)amino)propoxy)phenyl)propan-2-yl)phenoxy)methyl) thiazol-4-carbonylamine], 11 to 100 nM; under `CC(C)(c1ccc(OCCCNc2ccc3c(c2)C(=O)N(C2CCC(=O)NC2=O)C3=O)cc1)c1ccc(OCc2nc3ncccc3o2)cc1` (stereo not shown) [Example 442, 2-(2,6-dioxopiperidin-3-yl)-5-((3-(4-(2-(4-(oxazolo[4,5-b]pyridin-2-ylmethoxy)phenyl)propan-2-yl)phenoxy)propyl)amino)isoindolin-1,3-dione], 11 to 100 nM.
Still for that read-out and setting: under `CC(C)(c1ccc(OCCCNc2cccc3c2C(=O)N(C2CCC(=O)NC2=O)C3=O)cc1)c1ccc(OCc2nc3ncccc3o2)cc1` (stereo not shown) [Example 443, 2-(2,6-dioxopiperidin-3-yl)-4-((3-(4-(2-(4-(oxazolo[4,5-b]pyridin-2-ylmethoxy)phenyl)propan-2-yl)phenoxy)propyl)amino)isoindolin-1,3-dione] stands 11 to 100 nM.
In turn, `CC1(CNc2nccc(COc3ccc(C(C)(C)c4ccc(O[C@H]5C[C@@H](Nc6ccc7c(c6)C(=O)N(C6CCC(=O)NC6=O)C7=O)C5)cc4)cc3)n2)CNC1` (stereo partly shown) [Example 457] displayed a DC50 (class symbols) of 11 to 100 nM.
Still for that read-out and setting: under `CC1(C)CN(c2nccc(COc3ccc(C(C)(C)c4ccc(O[C@H]5C[C@@H](Nc6ccc7c(c6)C(=O)N(C6CCC(=O)NC6=O)C7=O)C5)cc4)cc3)n2)CCN1` (stereo partly shown) [Example 458, 5-(((1s,3s)-3-(4-(2-(4-((2-(3,3-dimethylpiperazin-1-yl)pyrimidin-4-yl)methoxy)phenyl)propan-2-yl)phenoxy)cyclobutyl)amino)-2-(2,6-dioxopiperidin-3-yl)isoindolin-1,3-dione] stands 11 to 100 nM; under `CC(C)(c1ccc(Oc2ccnc(N3CC4(COC4)C3)n2)cc1)c1ccc(O[C@H]2C[C@@H](Nc3ccc4c(c3)C(=O)N(C3CCC(=O)NC3=O)C4=O)C2)cc1` (stereo partly shown) [Example 459], 11 to 100 nM; under `Cn1nc(C(F)(F)F)cc1-c1nccc(COc2ccc(C(C)(C)c3ccc(O[C@H]4C[C@@H](Nc5ccc6c(c5)C(=O)N(C5CCC(=O)NC5=O)C6=O)C4)cc3)cc2)n1` (stereo partly shown) [Example 462], 101 to 1000 nM.
Still for that read-out and setting: under `CCN1CC(Oc2nccc(COc3ccc(C(C)(C)c4ccc(O[C@H]5C[C@@H](Nc6ccc7c(c6)C(=O)N(C6CCC(=O)NC6=O)C7=O)C5)cc4)cc3)n2)C1` (stereo partly shown) [Example 466] stands 11 to 100 nM.
Compound `CC(C)(c1ccc(OCc2ccnc(OC3CN(C4CC4)C3)n2)cc1)c1ccc(O[C@H]2C[C@@H](Nc3ccc4c(c3)C(=O)N(C3CCC(=O)NC3=O)C4=O)C2)cc1` (stereo partly shown) [Example 467, 5-(((1s,3s)-3-(4-(2-(4-((2-((1-cyclopropylazetidin-3-yl)oxy)pyrimidin-4-yl)methoxy)phenyl)propan-2-yl)phenoxy)cyclobutyl)amino)-2-(2,6-dioxopiperidin-3-yl)isoindolin-1,3-dione] returned a DC50 (class symbols) of 11 to 100 nM.
Turning to `CC(C)(c1ccc(Oc2ccnc(-n3nccn3)n2)cc1)c1ccc(O[C@H]2C[C@H](Nc3ccc4c(c3)C(=O)N(C3CCC(=O)NC3=O)C4=O)C2)cc1` (stereo partly shown) [Example 469, 5-(((1r,3r)-3-(4-(2-(4-((2-(2H-1,2,3-triazol-2-yl)pyrimidin-4-yl)oxy)phenyl)propan-2-yl)phenoxy)cyclobutyl)amino)-2-(2,6-dioxopiperidin-3-yl)isoindolin-1,3-dione], under “class symbols”, the DC50 was in the range of 11 to 100 nM.
Turning to `Cc1noc(-c2cccc(COc3ccc(C(C)(C)c4ccc(O[C@H]5C[C@@H](Nc6ccc7c(c6)C(=O)N(C6CCC(=O)NC6=O)C7=O)C5)cc4)cc3)n2)n1` (stereo partly shown) [Example 472], the DC50 (class symbols) fell in the range of 11 to 100 nM.
Take `Cc1nc(-c2ccnc(Oc3ccc(C(C)(C)c4ccc(O[C@H]5C[C@H](Nc6ccc7c(c6)C(=O)N(C6CCC(=O)NC6=O)C7=O)C5)cc4)cc3)c2)no1` (stereo partly shown) [Example 474]: the DC50 (class symbols) fell in the range of 11 to 100 nM.
Under “class symbols”, `CC(C)(c1ccc(Oc2cnc(CN3CC(F)(F)C3)nc2)cc1)c1ccc(OC2CC(Nc3ccc4c(c3)C(=O)N(C3CCC(=O)NC3=O)C4=O)C2)cc1` (stereo not shown) [Example 479, 5-(((1r,3r)-3-(4-(2-(4-((2-((3,3-difluoroazetidin-1-yl)methyl)pyrimidin-5-yl)oxy)phenyl)propan-2-yl)phenoxy)cyclobutyl)amino)-2-(2,6-dioxopiperidin-3-yl)isoindolin-1,3-dione] had a DC50 of 11 to 100 nM.
Still for that read-out and setting: the value for `Cc1nc(-c2ccnc(Oc3ccc(C(C)(C)c4ccc(O[C@H]5C[C@@H](Nc6ccc7c(c6)C(=O)N(C6CCC(=O)NC6=O)C7=O)C5)cc4)cc3)c2)no1` (stereo partly shown) [Example 481] was 11 to 100 nM; that for `Cc1nnc(-c2ncc(Oc3ccc(C(C)(C)c4ccc(O[C@H]5C[C@@H](Nc6ccc7c(c6)C(=O)N(C6CCC(=O)NC6=O)C7=O)C5)cc4)cc3)cn2)o1` (stereo partly shown) [Example 484] was 11 to 100 nM.
With `CC(=O)c1nccc(COc2ccc(C(C)(C)c3ccc(OCC4CN(c5ccc6c(c5)C(=O)N(C5CCC(=O)NC5=O)C6=O)C4)cc3)cc2)n1` (stereo not shown) [Example 485, 5-(3-((4-(2-(4-((2-acetylpyrimidin-4-yl)methoxy)phenyl)propan-2-yl)phenoxy)methyl)azetidin-1-yl)-2-(2,6-dioxopiperidin-3-yl)isoindolin-1,3-dione], the DC50 (class symbols) is 11 to 100 nM.
Same read-out and setting: the value for `CC(=O)c1nccc(COc2ccc(C(C)(C)c3ccc(OC4CCN(c5ccc6c(c5)C(=O)N(C5CCC(=O)NC5=O)C6=O)C4)cc3)cc2)n1` (stereo not shown) [Example 486] was 101 to 1000 nM.
